Values belong to the compound of their own block, whether it stands above or below them.
Experiments:
[1] = biological target: T1, 4-hydroxyphenylpyruvate dioxygenase (Sus scrofa, UniProt Q02110); experiment: Inhibitory activity on pig liver 4-hydroxyphenylpyruvate dioxygenase (HPPD) was evaluated
[2] = biological target: T1, 4-hydroxyphenylpyruvate dioxygenase; experiment: The inhibitory activity on pig liver 4-hydroxyphenylpyruvate dioxygenase (HPPD) was evaluated.
[3] = biological target: 4-hydroxyphenylpyruvate dioxygenase (Sus scrofa) (UniProt Q02110); experiment: Compound was evaluated for complete competitive inhibition of 4-hydroxyphenylpyruvate dioxygenase (HPPD)
Chain of 4-hydroxyphenylpyruvate dioxygenase (Sus scrofa) (Q02110 2-393 limits assumed): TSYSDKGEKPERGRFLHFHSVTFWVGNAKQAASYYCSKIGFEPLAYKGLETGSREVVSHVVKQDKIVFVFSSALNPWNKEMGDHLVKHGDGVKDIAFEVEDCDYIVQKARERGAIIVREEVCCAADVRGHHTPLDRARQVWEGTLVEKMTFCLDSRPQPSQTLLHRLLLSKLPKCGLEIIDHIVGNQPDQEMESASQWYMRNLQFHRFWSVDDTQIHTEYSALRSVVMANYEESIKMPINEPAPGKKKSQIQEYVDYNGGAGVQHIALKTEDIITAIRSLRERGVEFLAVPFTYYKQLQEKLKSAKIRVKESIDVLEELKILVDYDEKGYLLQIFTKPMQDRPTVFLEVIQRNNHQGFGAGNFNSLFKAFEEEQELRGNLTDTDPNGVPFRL

[4] = biological target: T1, 4-hydroxyphenylpyruvate dioxygenase; experiment: Compound was evaluated for competitive inhibition of 4-hydroxyphenylpyruvate dioxygenase (HPPD) (complete inhibition was observed at a concentration of 0.5-1.0 mM)

T1 sequence (Q02110 whole entry): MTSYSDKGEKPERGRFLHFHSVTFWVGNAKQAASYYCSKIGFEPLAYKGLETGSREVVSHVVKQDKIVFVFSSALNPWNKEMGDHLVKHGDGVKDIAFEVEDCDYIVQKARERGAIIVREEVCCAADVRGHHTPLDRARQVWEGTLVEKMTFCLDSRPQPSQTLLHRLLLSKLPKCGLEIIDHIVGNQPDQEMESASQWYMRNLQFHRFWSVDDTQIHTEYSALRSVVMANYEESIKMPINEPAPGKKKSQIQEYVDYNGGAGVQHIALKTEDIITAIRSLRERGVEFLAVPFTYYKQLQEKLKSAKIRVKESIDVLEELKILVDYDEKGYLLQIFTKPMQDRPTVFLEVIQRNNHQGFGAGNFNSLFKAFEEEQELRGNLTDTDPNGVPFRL

Structure (SMILES): CS(=O)(=O)c1ccc(C(O)=C2C(=O)CCCC2=O)c(Cl)c1
IC50 [1]: 45 nM

IC50 [2]: 40 nM
Structure (SMILES): O=C1CCCC(=O)C1=C(O)c1ccc(C(F)(F)F)cc1[N+](=O)[O-]

Structure (SMILES): CCC/C(=N\OCC)C1=C(O)CC(CC(C)SCC)CC1=O (centres undefined) [SETHOXYDIM]
IC100 [3]: 1 mM | Ki [4]: 300000 nM

Reference: ChEMBL document CHEMBL1131943, “Inhibition of 4-hydroxyphenylpyruvate dioxygenase by sethoxydim, a potent inhibitor of acetyl-coenzyme A carboxylase” (Bioorg Med Chem Lett, 1999)
